In patent publication US7763286B2, “Composition comprising an extract of Tiarella polyphylla and tiarellic acid isolated therefrom having antiinflammatory, antiallergic and antiasthmatic activity” (Korea Research Institute of Bioscience and Biotechnology, priority 2005, dated 2010):
Like-named read-outs stand apart in the source and are kept apart here.

Legend:
HL-60 cells = conditions: human, 4 h
Method: Promyelotic HL-60 cells (HL-18103, 5×10^5 cells/ml) were seeded on 96-well plates under NGF-free condition. […] 4 hours later, MTT was removed and 100 μl of DMSO was dropped into each well to dissolve crystals. UV absorbance was measured by microplate reader (BIO-RAD, U.S.A.) at 570 nm to calculate the cell viability.

IL-13 = IL-13 level in BALF of OVA-induced asthmatic mice (ELISA); type: in vivo; conditions: 30 mg/ml; for IL-13: 48 hours after last challenge; for inhibition at 30000 µg/mL: Mus musculus, vs OVA-control
Method: (§1) Groups of mice (n=5-6) were studied; they received the following treatment: (1) sham-sensitization plus challenge with phosphate-buffered saline (PBS; ipNeb); (2) sensitization plus challenge with OVA (ovalbumin: Sigma A5503; Sigma, St. Louis, Mo.) (ipNeb); (3) sensitization with OVA (ip) plus challenge with OVA (Neb) and samples (tiarellic acid or zileuton, po). Briefly, mice were sensitized with intraperitoneal injection of 20 μg OVA, which was emulsified with 2 mg of aluminum hydroxide in 100 μl of PBS buffer (pH 7.4) on days 0 and 11. The mice were challenged through the airways with OVA (1% in PBS) for 20 min using an ultrasonic nubuilizer (NE-U12; Omron Corp., Tokyo, Japan) on days 19, 20, 21 and 25 after the initial sensitization. The mice were sacrificed 48 hours after the last challenge (day 27) to determine the suppressive effect of extract of T. polyphylla and tiarellic acid on the airways of allergic asthma.
(§2) 48 hours after the last challenge, the mice were sacrificed with an overdose of pentobarbital (Sigma P3761), and a tracheotomy was performed. After ice-cold PBS (0.5 ml) was instilled into the lungs, bronchoalveolar lavage fluid (BALF) was obtained by aspiration three times (total 1.5 ml) via tracheal cannulation. BALF was centrifuged and supernatants were collected and stored at −70° C. before use. The amount of IL-4, IL-5 and IL-13 in BALF was measured by a specific mouse ELISA kit (R&D Systems; Minneapolis, Minn.) according to the manufacturer's instructions. The detection limit of the assays was 250 pg/ml.
(§3) To determine the effect of extract of T. polyphylla and tiarellic acid on the cytokine release in the OVA-induced asthmatic mice, 48 hours after the last challenge, the levels of cytokines (IL-4, IL-5 and IL-13) in BALF were measured by using ELISA method.

IL-4 = IL-4 level in BALF of OVA-induced asthmatic mice (ELISA); type: in vivo; conditions: 30 mg/ml; for IL-4: 48 hours after last challenge; for inhibition at 30000 µg/mL: Mus musculus, vs OVA-control
Method: as §1, §2, §3

OVA-specific IgE = OVA-specific IgE in plasma of OVA-induced asthmatic mice (ELISA); type: in vivo; conditions: Mus musculus, 48 hours after last challenge, 30 mg/ml, vs OVA-control
Method: as §1, with “The mice were sacrificed 48 hours after the last challenge (day 27) to determine the suppressive effect of extract of T. polyphylla and tiarellic acid on the airways of allergic asthma.” left out
48 hours after the last challenge, the mice were sacrificed with an overdose of pentobarbital (Sigma P3761), and a tracheotomy was performed. […] The amount of IL-4, IL-5 and IL-13 in BALF was measured by a specific mouse ELISA kit (R&D Systems; Minneapolis, Minn.) according to the manufacturer's instructions. […]
Plasma was obtained by cardiac puncture after the tracheotomy. […] IgE levels in each sample were measured the optical density readings at 450 nm, and OVA-specific IgE concentrations were calculated from a standard curve, which was generated in case recombinant IgE (5-2,000 ng/ml) was used.

ICR rat = experiment: Carageenan-induced rat-paw edema; type: in vivo; conditions: for The thickness ratio of ankle (%) / inhibition at 50 mg/kg: 50 mg/kg; for inhibition at 50 mg/kg: Rattus norvegicus, paw edema
Method: The inhibiting activity of the extract of T. polyphylla and […] prepared from the above Examples on the edema formation in ICR rat was determined as follows. The mice were divided into three groups consisting of 6 rats for each group, i.e., T1 treated with only solvent as a negative control group, T2 treated with 50 mg/kg of the extract of T. polyphylla, T3 treated with 50 mg/kg of aspirin respectively. 1 hour after the treatment, 1% […] solution was injected into inner rat ankle to induce edema and the thickness of ankle was measured by Vernier's caliper to determine the degree of the edema. The determined thickness was calculated by following Math Fig. 1. The thickness ratio of ankle(%)=[(maximum thickness of rat paw edema)-(the thickness of pre-treated rat paw edema)/(the thickness of pre-treated rat paw edema)]×100 MathFigure 1

IL-5 = IL-5 level in BALF of OVA-induced asthmatic mice (ELISA); type: in vivo; conditions: 30 mg/ml; for IL-5: 48 hours after last challenge; for inhibition at 30000 µg/mL: Mus musculus, vs OVA-control
Method: as §1, §2, §3

OVA-induced mice = experiment: OVA-induced inflammation in lung tissue (H&E histology, inflammation score); type: in vivo
Method: Groups of mice (n=5-6) were studied; they received the following treatment: (1) sham-sensitization plus challenge with phosphate-buffered saline (PBS; ipNeb); (2) sensitization plus challenge with OVA (ovalbumin: Sigma A5503; Sigma, St. Louis, Mo.) (ipNeb); (3) sensitization with OVA (ip) plus challenge with OVA (Neb) and samples (tiarellic acid or zileuton, po). Briefly, mice were sensitized with intraperitoneal injection of 20 μg OVA, which was emulsified with 2 mg of aluminum hydroxide in 100 μl of PBS buffer (pH 7.4) on days 0 and 11. […]
The lung tissue was fixed for 24 hours on 10% neutral-buffered formalin. […] The degree of cell infiltration in the airway was scored in a double-blind test performed by two independent investigators (Myou S et al., J. Exp. Med., 198, pp 1573-1582, 2003). The peri-bronchiole and peri-vascular inflammation was evaluated by specific standard, i.e., scoring of 0-3, 0, no cells; 1, a few cells; 2, a ring of cells 1 to 5 cell-layer deep; 3, a thick ring of cells more than 5 cell-layer deep. To evaluate the suppressive effect of T. polyphylla extract and tiarellic acid on the leukocyte infiltration, the degree of inflammation was scored by quantitative analysis in lung tissues 48 hours after the last challenge (See FIG. 2).

[1] = test system: OVA-induced asthmatic mice; experiment: Airway hyperresponsiveness (AHR), whole-body plethysmography, OVA-induced asthmatic mice; type: in vivo; conditions: for Penh value: tiarellic acid and zileuton 30 mg/ml, po; for Penh value / AHR compared with OVA-treated group: OVA-challenged mice, in words
Method: as §1, with “([…]” for “(tiarellic acid”, “tiarellic acid” left out, “asthma. 24 hours after the final aerosol challenge AHR was measured by using a whole-body plethysmography (OCP3000; Allmedicus, Korea)(Hamelmann E et al., Am J Respir Crit. Care Med., 156, pp 766-775, 1997). […] Bronchoconstriction was recorded for additional 5 mins at each concentration. The highest Penh value of each sample was obtained during each methacholine challenge, and expressed as a percentage of a basal Penh value in response to control (PBS) challenge.” for “asthma.”

LTC4 release = LTC4 release from SCF-stimulated bone marrow-derived mast cells (BMMC), enzyme immunoassay; type: cell-based, Balb/c mice; conditions: Mus musculus, SCF 100 ng/ml stimulation, read-out: LTC4 release inhibition (IC50)
Method: BMMC were obtained from male Balb/c mice and cultured for up to 4 weeks in 50% enriched medium (RPMI containing 2 mM L-glutamine, 25 mM HEPES buffer, 2 mg/ml sodium bicarbonate, 100 units/ml penicillin G, 100 μg/ml streptomycin sulfate, 0.25 μg/ml amphotericin B) supplemented with 10% fetal bovine serum with IL-3 (Sigma I4144, 2 ng/ml) (Murakami M et al., J. Bio. Chem., 39, pp 22653-22656, 1995). 3 weeks after the culture, more than 98% of BMMC was found in the cells as assessed by staining method with toluidine blue.
BMMC were suspended in the enriched medium at the cell density of 1×10^6 cells/ml, and were then incubated in a humidified 5% CO2 incubator with or without sample in DMSO (final DMSO concentration was less than 0.5%) for 30 min at 37° C. After the stimulation with stem cell factor (SCF, Sigma S9915, 100 ng/ml) for 20 min, the LTC4 release in supernatants was measured by an enzyme immunoassay kit (Cayman Chemical, Ann Arbor, Mich., U.S.A.) according to the manufacturer's instructions. All the experiments were carried out in triplicate and the inhibition of LTC4 release was determined by calculating % reduction of LTC4 release from the control (Lee S H et al., Biol. Pharm. Bull., 27, pp 786-788, 2004). […]

SMILES	IL-13 (IL-13) [pg/mL]	inhibition at 30000 µg/mL (IL-13) [%]	IL-4 (IL-4) [pg/mL]	inhibition at 30000 µg/mL (IL-4) [%]	inhibition at 30000 µg/mL (OVA-specific IgE) [%]	IL-5 (IL-5) [pg/mL]	inhibition at 30000 µg/mL (IL-5) [%]	Penh value ([1]; Metacholine 0 mg/ml)	Penh value ([1]; Metacholine 5 mg/ml)	Penh value ([1]; Metacholine 10 mg/ml)	Penh value ([1]; Metacholine 20 mg/ml)	Penh value / AHR compared with OVA-treated group [1]	IC50 (LTC4 release) [µM]	other results
C=C(C)[C@@H]1CC[C@]2(C)CC[C@]3(C(=O)O)C(CCC4[C@@]5(C)CC[C@H](O)[C@@](C)(CO)C5CC[C@]43C)C12 (some centres unmarked) [Tiarellic acid, tiarellic acid]	81.7 ± 40.9	43.7 ± 28.2	33.8 ± 14.3	90.5 ± 4	48.8	81.9 ± 41.4	54.6 ± 23	0.46 ± 0.08	0.96 ± 0.45	1.54 ± 0.74	2.15 ± 0.52	significantly reduced	2.49	Cell viability (%) (HL-60 cells; 50 μM): 100%; Cell viability (%) (HL-60 cells; 100 μM): 102%; inhibition effect on rat paw edema (ICR rat; in words): potent inhibition effect; infiltration of eosinophil-rich leukocytes (OVA-induced mice; H&E staining of lung tissues, compared with OVA-treated mice): significantly attenuated; suppressive effect on the inflammation in the lung tissues (OVA-induced mice; OVA-induced mice, 48 hours after last challenge): most potent suppressive effect
CC(=O)Oc1ccccc1C(=O)O [aspirin]	–	–	–	–	–	–	–	–	–	–	–	–	–	The thickness ratio of ankle (%) (ICR rat; 1 hr): 139.3 ± 40.6%; The thickness ratio of ankle (%) (ICR rat; 2 hr): 170.4 ± 34.5%; The thickness ratio of ankle (%) (ICR rat; 3 hr): 180.6 ± 28.6%; The thickness ratio of ankle (%) (ICR rat; 4 hr): 196.9 ± 15.4%; The thickness ratio of ankle (%) (ICR rat; 5 hr): 198.5 ± 12.6%; inhibition at 50 mg/kg (ICR rat; 1 hr): -16.8 ± 34%; inhibition at 50 mg/kg (ICR rat; 2 hr): -7.8 ± 21.8%; inhibition at 50 mg/kg (ICR rat; 3 hr): 7.3 ± 14.7%; inhibition at 50 mg/kg (ICR rat; 4 hr): 4.3 ± 7.5%; inhibition at 50 mg/kg (ICR rat; 5 hr): 1.5 ± 6.3%
CC(c1cc2ccccc2s1)N(O)C(N)=O (centres unmarked) [zileuton]	130.1 ± 16.8	10.3	289.5 ± 59.0	18.7	45.8	157.8 ± 41.3	12.5	0.55 ± 0.14	1.17 ± 0.59	1.97 ± 0.83	2.49 ± 0.90	showed a decrease of AHR but less than tiarellic acid	0.11	–
